Laboratory results: patent US20250312323A1 (Cavion, Inc., priority 2018, published 2025)

Test system: patients with essential tremor
Test: T-CALM: treatment-emergent adverse events, discontinuations, dosage reductions
Type: in vivo, human
Experimental: T-CALM employed the following dose titration scheme: Week 1 at 4 mg BID (8 mg/day), Week 2 at 8 mg BID (16 mg/day) and Weeks 3 & 4 at 10 mg BID (20 mg/day). […] Adverse Events were coded using MedDRA V20.0. Only treatment emergent adverse events with an onset date and time after the initiation of study drug until 30 days after discontinuation of drug were reported. For subjects who experience the same coded event more than once, a single event was presented. Adverse events were attributed to a study week based on the onset date, i.e. events that started on or after Visit 1 and prior to Visit 2 were classified as Study Week 1.
Adverse events are characterized by maximum severity, drug-related adverse events, serious adverse events and adverse events leading to discontinuation of study.
Safety procedures involved collection of all TEAEs (treatment-emergent adverse events) coded into the Medical Dictionary for Regulatory Activities (MedDRA) version 20. Adverse events were classified by maximum severity, drug-related adverse events, serious adverse events, and adverse events leading to patient discontinuation.

CC(C)c1ccc(CC(=O)N[C@H](C)c2ccc(OCC(F)(F)F)cn2)cc1 [CX-8998]
3: AE Psychiatric Disorders, number of subjects (onset in study week 3)
(21%): AE Any Event, percent of subjects (onset in study week 2)
0: AE Vascular Disorders, number of subjects (onset in study week 1) | AE Ear and Labyrinth Disorders, number of subjects (onset in study week 2) | AE Eye Disorders, number of subjects (onset in study week 2) | AE Metabolism and Nutrition Disorders, number of subjects (onset in study week 2) | AE Neoplasms, number of subjects (onset in study week 2) | AE Skin and Subcutaneous Tissue Disorders, number of subjects (onset in study week 2) | AE Ear and Labyrinth Disorders, number of subjects (onset in study week 3) | AE Eye Disorders, number of subjects (onset in study week 3) | AE Neoplasms, number of subjects (onset in study week 3) | AE Skin and Subcutaneous Tissue Disorders, number of subjects (onset in study week 3) | AE Vascular Disorders, number of subjects (onset in study week 3) | AE Central Nervous System Disorders, number of subjects (onset in study week 4) | AE Ear and Labyrinth Disorders, number of subjects (onset in study week 4) | AE Eye Disorders, number of subjects (onset in study week 4) | AE Gastrointestinal Disorders, number of subjects (onset in study week 4) | AE Infections and Infestations, number of subjects (onset in study week 4) | AE Musculoskeletal and Connective Tissue Disorders, number of subjects (onset in study week 4) | AE Neoplasms, number of subjects (onset in study week 4) | AE Skin and Subcutaneous Tissue Disorders, number of subjects (onset in study week 4) | AE Vascular Disorders, number of subjects (onset in study week 4) | AE Ear and Labyrinth Disorders, number of subjects (onset in study week >4) | AE Eye Disorders, number of subjects (onset in study week >4) | AE Gastrointestinal Disorders, number of subjects (onset in study week >4) | AE Infections and Infestations, number of subjects (onset in study week >4) | AE Investigations, number of subjects (onset in study week >4) | AE Metabolism and Nutrition Disorders, number of subjects (onset in study week >4) | AE Musculoskeletal and Connective Tissue Disorders, number of subjects (onset in study week >4) | AE Neoplasms, number of subjects (onset in study week >4) | AE Psychiatric Disorders, number of subjects (onset in study week >4) | AE Skin and Subcutaneous Tissue Disorders, number of subjects (onset in study week >4) | AE Vascular Disorders, number of subjects (onset in study week >4)
(8%): AE Central Nervous System Disorders, percent of subjects (onset in study week 2)
2: AE Infections and Infestations, number of subjects (onset in study week 2) | AE Psychiatric Disorders, number of subjects (onset in study week 2) | AE Infections and Infestations, number of subjects (onset in study week 3) | AE Psychiatric Disorders, number of subjects (onset in study week 4)
(6%): AE Psychiatric Disorders, percent of subjects (onset in study week 3)
(2%): AE Skin and Subcutaneous Tissue Disorders, percent of subjects (onset in study week 1) | AE Gastrointestinal Disorders, percent of subjects (onset in study week 2) | AE Investigations, percent of subjects (onset in study week 2) | AE Musculoskeletal and Connective Tissue Disorders, percent of subjects (onset in study week 2) | AE Vascular Disorders, percent of subjects (onset in study week 2) | AE Central Nervous System Disorders, percent of subjects (onset in study week 3) | AE Gastrointestinal Disorders, percent of subjects (onset in study week 3) | AE Injury, Poisoning and Procedural Complications, percent of subjects (onset in study week 3) | AE Investigations, percent of subjects (onset in study week 3) | AE Metabolism and Nutrition Disorders, percent of subjects (onset in study week 3) | AE Musculoskeletal and Connective Tissue Disorders, percent of subjects (onset in study week 3) | AE Respiratory, Thoracic and Mediastinal Disorders, percent of subjects (onset in study week 3) | AE Investigations, percent of subjects (onset in study week 4) | AE Metabolism and Nutrition Disorders, percent of subjects (onset in study week 4) | AE Any Event, percent of subjects (onset in study week >4) | AE Central Nervous System Disorders, percent of subjects (onset in study week >4)
(17%): AE Any Event, percent of subjects (onset in study week 3)
(4%): AE Infections and Infestations, percent of subjects (onset in study week 2) | AE Psychiatric Disorders, percent of subjects (onset in study week 2) | AE Infections and Infestations, percent of subjects (onset in study week 3) | AE Any Event, percent of subjects (onset in study week 4) | AE Psychiatric Disorders, percent of subjects (onset in study week 4)
4: AE Central Nervous System Disorders, number of subjects (onset in study week 2)
1: AE Gastrointestinal Disorders, number of subjects (onset in study week 2) | AE Investigations, number of subjects (onset in study week 2) | AE Musculoskeletal and Connective Tissue Disorders, number of subjects (onset in study week 2) | AE Vascular Disorders, number of subjects (onset in study week 2) | AE Central Nervous System Disorders, number of subjects (onset in study week 3) | AE Gastrointestinal Disorders, number of subjects (onset in study week 3) | AE Investigations, number of subjects (onset in study week 3) | AE Metabolism and Nutrition Disorders, number of subjects (onset in study week 3) | AE Musculoskeletal and Connective Tissue Disorders, number of subjects (onset in study week 3) | AE Investigations, number of subjects (onset in study week 4) | AE Metabolism and Nutrition Disorders, number of subjects (onset in study week 4) | AE Central Nervous System Disorders, number of subjects (onset in study week >4)
